The record followed here is the NIST ThermoML archive (doi:10.1021/acs.jced.7b00489).

Each structure is given as a SMILES string. Numbers after ± are expanded uncertainties.

The conditions of this data set: Crystal; DSC.

For the compound `O=C(c1cc(Cc2n[nH]c(=O)c3ccccc23)ccc1F)N1CCN(C(=O)C2CC2)CC1` [olaparib], the Triple point temperature is 471.65 ± 1.8 K.
